From ChEMBL document CHEMBL5131445, “Optimization of a novel piperazinone series as potent selective peripheral covalent BTK inhibitors” (Bioorg Med Chem Lett, 2022)
≈ marks a conversion by molar mass, not a printed value.

Assays:
[1] = Metabolic stability in human liver microsomes assessed as intrinsic clearance; type: ADME, Microsome; details: read-out: CLH
[2] = Plasma protein binding in human assessed as unbound fraction by rapid equilibrium dialysis method; type: ADME, cell-free
[3] = Metabolic stability in rat liver microsomes assessed as intrinsic clearance; type: ADME, Microsome; details: read-out: CLH
[4] = Inhibition of CD69 expression on CD19 positive B cells in anti-IgD stimulated human whole blood; type: functional, tissue-based; details: CD19 positive B cell
[5] = molecular target: T1, Tyrosine-protein kinase BTK (Homo sapiens, UniProt Q06187); assay: Inhibition of BTK (unknown origin)
T1 sequence (Q06187 whole entry): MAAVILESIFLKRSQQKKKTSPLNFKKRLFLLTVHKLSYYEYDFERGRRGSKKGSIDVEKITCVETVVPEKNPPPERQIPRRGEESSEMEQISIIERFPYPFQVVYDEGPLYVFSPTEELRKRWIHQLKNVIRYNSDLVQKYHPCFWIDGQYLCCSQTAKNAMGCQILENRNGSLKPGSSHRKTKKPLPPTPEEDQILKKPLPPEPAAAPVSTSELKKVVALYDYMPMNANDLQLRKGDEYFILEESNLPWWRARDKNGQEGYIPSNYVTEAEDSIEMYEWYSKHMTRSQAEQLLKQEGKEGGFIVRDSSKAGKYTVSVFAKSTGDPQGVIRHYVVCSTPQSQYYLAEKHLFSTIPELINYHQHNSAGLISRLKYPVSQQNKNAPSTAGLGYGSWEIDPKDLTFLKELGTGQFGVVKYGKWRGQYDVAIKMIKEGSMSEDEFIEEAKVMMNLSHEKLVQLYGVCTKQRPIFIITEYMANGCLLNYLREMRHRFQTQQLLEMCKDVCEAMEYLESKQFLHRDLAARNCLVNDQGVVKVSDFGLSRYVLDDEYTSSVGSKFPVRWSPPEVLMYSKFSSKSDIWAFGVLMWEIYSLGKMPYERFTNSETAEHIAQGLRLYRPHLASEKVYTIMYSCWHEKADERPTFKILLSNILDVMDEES

[6] = Solubility of the compound at pH 7; type: physicochemical; details: buffer
[7] = molecular target: Tyrosine-protein kinase Blk (Homo sapiens, UniProt P51451); assay: Binding affinity to BLK (unknown origin) assessed as dissociation constant by KINOMEscan analysis
Chain of Tyrosine-protein kinase Blk (P51451 whole entry): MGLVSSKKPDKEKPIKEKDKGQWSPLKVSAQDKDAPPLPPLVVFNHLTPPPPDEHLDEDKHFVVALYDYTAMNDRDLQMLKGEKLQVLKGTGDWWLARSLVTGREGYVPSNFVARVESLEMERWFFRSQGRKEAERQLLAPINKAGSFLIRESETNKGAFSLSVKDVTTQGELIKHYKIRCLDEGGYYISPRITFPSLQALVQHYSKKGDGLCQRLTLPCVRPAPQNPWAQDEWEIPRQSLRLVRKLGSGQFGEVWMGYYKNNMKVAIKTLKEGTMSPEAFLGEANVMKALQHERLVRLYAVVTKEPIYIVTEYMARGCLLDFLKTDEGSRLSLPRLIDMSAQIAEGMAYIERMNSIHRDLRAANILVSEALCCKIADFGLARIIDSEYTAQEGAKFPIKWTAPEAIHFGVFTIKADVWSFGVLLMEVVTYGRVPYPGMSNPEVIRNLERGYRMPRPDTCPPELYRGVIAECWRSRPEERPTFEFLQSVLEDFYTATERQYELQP

[8] = molecular target: T2, Tyrosine-protein kinase TXK (Homo sapiens, UniProt P42681); assay: Binding affinity to TXK (unknown origin) assessed as dissociation constant by KINOMEscan analysis
T2 sequence (P42681 whole entry): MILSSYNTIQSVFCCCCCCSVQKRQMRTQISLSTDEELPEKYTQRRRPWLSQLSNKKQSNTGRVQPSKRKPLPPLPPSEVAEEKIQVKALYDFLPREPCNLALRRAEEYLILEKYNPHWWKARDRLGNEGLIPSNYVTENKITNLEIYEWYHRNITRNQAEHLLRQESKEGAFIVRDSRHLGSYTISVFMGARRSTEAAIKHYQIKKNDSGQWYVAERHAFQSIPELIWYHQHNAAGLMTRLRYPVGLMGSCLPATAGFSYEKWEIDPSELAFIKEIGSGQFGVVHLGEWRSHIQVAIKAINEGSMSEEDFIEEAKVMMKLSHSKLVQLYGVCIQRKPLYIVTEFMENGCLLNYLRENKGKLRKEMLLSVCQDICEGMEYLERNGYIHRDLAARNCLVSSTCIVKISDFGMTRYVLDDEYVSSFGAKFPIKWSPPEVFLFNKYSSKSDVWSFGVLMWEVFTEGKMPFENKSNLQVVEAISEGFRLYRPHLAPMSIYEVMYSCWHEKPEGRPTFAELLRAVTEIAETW

[9] = molecular target: T3, Tyrosine-protein kinase Tec (Homo sapiens, UniProt P42680); assay: Binding affinity to TEC (unknown origin) assessed as dissociation constant by KINOMEscan analysis
T3 sequence (P42680 whole entry): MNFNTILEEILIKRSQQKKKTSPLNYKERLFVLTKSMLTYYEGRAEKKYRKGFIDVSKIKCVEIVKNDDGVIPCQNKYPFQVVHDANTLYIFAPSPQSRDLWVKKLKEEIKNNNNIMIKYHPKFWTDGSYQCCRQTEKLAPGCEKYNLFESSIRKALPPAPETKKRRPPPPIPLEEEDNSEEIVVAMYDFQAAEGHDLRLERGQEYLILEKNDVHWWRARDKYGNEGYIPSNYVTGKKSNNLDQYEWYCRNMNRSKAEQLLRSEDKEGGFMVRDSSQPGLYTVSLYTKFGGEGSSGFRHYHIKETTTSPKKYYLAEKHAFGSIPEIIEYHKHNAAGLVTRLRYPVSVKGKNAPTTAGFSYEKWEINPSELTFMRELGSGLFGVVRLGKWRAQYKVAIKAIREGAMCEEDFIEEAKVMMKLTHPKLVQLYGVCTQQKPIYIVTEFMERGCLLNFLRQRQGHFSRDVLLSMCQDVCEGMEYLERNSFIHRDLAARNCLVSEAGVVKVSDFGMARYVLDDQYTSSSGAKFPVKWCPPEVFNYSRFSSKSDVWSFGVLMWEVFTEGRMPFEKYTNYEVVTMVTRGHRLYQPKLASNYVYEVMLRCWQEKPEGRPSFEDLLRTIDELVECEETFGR

[10] = molecular target: Receptor tyrosine-protein kinase erbB-2 (Homo sapiens, UniProt P04626); assay: Binding affinity to ERBB2 (unknown origin) assessed as dissociation constant by KINOMEscan analysis
Chain of Receptor tyrosine-protein kinase erbB-2 (P04626 whole entry): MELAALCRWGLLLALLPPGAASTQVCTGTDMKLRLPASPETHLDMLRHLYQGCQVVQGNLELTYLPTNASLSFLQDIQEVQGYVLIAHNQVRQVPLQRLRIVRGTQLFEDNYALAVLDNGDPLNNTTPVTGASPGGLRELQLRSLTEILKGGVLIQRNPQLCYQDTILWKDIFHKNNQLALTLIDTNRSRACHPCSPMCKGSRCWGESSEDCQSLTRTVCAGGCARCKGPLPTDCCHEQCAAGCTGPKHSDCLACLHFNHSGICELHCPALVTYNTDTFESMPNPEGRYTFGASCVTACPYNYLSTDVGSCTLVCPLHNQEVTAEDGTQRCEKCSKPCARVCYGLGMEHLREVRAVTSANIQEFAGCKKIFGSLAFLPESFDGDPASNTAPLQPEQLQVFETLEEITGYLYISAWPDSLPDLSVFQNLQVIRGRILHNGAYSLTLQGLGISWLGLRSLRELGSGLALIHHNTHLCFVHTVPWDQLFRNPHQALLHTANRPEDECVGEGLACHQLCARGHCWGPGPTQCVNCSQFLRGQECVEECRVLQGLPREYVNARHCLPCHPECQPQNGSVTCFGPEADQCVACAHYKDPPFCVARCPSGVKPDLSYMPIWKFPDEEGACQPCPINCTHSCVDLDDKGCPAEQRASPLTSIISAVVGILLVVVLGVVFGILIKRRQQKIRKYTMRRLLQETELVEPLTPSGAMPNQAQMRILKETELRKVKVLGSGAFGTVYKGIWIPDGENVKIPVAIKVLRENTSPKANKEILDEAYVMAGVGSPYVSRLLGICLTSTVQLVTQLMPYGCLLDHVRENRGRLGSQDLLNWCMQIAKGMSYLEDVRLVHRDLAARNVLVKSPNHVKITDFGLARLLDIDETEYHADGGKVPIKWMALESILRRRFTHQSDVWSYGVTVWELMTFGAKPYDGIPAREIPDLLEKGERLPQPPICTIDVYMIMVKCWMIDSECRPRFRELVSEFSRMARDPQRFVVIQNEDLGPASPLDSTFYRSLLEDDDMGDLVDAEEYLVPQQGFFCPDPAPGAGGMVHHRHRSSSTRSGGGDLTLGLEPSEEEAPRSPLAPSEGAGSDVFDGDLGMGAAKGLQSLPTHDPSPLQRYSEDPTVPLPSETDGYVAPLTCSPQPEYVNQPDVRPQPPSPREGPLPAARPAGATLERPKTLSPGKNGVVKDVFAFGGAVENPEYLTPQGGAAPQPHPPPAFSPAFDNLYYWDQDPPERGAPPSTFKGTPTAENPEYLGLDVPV

[11] = molecular target: T1, Tyrosine-protein kinase BTK; assay: Inhibition of pBTK in human whole blood; type: tissue-based
[12] = molecular target: T4, Tyrosine-protein kinase JAK3 (Homo sapiens, UniProt P52333); assay: Binding affinity to JAK3 (unknown origin) assessed as dissociation constant by KINOMEscan analysis
T4 sequence (P52333 whole entry): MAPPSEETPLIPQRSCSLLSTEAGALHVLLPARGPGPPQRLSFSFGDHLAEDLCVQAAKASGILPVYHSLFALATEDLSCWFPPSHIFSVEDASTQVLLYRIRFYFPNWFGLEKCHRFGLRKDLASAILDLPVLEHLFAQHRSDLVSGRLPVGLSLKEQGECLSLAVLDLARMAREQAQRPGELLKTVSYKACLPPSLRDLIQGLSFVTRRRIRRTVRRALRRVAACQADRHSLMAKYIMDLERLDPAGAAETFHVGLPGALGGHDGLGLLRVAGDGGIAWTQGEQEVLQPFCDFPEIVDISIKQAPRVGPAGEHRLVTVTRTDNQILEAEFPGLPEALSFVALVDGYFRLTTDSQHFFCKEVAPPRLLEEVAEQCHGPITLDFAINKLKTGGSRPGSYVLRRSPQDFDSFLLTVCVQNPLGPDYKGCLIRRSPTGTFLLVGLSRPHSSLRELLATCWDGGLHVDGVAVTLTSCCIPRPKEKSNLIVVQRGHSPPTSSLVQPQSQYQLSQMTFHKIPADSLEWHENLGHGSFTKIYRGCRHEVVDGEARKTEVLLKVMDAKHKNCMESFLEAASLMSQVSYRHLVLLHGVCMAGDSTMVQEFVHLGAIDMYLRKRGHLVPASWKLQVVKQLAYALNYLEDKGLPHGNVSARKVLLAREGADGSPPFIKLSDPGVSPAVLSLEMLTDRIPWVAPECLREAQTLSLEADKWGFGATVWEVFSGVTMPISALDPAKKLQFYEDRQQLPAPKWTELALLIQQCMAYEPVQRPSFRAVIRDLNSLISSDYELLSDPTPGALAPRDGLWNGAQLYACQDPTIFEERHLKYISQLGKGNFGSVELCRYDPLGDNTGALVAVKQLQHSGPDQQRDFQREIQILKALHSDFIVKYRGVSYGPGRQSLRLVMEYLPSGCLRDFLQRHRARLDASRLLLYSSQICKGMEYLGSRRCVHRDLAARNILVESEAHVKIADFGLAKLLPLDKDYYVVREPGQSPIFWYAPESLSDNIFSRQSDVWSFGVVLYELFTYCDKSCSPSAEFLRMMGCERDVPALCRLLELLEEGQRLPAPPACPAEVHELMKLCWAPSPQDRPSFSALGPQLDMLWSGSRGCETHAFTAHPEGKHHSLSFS

[13] = molecular target: Receptor tyrosine-protein kinase erbB-4 (Homo sapiens, UniProt Q15303); assay: Binding affinity to ERBB4 (unknown origin) assessed as dissociation constant by KINOMEscan analysis
Chain of Receptor tyrosine-protein kinase erbB-4 (Q15303 whole entry): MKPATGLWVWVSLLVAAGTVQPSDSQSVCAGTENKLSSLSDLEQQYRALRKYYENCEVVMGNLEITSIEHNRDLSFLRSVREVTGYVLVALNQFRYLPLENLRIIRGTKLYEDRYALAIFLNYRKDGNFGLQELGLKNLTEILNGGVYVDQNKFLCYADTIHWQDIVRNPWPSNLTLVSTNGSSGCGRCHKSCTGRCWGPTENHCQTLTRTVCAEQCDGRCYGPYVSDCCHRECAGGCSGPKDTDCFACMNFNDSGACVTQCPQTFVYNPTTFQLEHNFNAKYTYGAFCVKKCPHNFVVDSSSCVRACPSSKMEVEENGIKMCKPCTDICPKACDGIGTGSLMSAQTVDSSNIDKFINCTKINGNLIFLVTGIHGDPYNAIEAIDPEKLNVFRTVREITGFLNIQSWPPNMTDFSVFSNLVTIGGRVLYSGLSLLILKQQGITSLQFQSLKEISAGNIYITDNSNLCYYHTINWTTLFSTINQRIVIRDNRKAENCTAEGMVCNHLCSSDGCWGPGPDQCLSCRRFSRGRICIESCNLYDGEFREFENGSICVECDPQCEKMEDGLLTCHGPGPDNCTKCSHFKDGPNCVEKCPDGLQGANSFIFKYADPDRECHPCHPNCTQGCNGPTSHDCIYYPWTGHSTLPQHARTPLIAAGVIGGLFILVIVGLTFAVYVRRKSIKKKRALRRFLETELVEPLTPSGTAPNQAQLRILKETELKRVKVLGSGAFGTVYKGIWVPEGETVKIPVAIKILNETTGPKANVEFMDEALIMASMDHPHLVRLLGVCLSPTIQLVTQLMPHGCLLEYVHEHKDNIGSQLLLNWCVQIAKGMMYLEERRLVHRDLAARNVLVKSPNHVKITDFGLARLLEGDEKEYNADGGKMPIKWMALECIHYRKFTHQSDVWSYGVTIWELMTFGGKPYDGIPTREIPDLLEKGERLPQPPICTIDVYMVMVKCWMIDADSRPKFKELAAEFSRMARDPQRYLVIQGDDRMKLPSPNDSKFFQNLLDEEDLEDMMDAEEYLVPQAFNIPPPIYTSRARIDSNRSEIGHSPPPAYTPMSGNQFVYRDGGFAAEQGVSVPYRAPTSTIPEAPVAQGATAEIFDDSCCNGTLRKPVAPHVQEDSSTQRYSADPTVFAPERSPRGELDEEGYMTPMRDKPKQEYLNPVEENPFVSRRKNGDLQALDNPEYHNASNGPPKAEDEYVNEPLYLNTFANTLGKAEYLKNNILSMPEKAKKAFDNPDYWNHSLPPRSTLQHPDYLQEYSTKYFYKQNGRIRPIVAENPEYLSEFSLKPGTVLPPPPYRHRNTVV

[14] = molecular target: Epidermal growth factor receptor (Homo sapiens, UniProt P00533); assay: Binding affinity to EGFR (unknown origin) assessed as dissociation constant by KINOMEscan analysis
Chain of Epidermal growth factor receptor (P00533 whole entry): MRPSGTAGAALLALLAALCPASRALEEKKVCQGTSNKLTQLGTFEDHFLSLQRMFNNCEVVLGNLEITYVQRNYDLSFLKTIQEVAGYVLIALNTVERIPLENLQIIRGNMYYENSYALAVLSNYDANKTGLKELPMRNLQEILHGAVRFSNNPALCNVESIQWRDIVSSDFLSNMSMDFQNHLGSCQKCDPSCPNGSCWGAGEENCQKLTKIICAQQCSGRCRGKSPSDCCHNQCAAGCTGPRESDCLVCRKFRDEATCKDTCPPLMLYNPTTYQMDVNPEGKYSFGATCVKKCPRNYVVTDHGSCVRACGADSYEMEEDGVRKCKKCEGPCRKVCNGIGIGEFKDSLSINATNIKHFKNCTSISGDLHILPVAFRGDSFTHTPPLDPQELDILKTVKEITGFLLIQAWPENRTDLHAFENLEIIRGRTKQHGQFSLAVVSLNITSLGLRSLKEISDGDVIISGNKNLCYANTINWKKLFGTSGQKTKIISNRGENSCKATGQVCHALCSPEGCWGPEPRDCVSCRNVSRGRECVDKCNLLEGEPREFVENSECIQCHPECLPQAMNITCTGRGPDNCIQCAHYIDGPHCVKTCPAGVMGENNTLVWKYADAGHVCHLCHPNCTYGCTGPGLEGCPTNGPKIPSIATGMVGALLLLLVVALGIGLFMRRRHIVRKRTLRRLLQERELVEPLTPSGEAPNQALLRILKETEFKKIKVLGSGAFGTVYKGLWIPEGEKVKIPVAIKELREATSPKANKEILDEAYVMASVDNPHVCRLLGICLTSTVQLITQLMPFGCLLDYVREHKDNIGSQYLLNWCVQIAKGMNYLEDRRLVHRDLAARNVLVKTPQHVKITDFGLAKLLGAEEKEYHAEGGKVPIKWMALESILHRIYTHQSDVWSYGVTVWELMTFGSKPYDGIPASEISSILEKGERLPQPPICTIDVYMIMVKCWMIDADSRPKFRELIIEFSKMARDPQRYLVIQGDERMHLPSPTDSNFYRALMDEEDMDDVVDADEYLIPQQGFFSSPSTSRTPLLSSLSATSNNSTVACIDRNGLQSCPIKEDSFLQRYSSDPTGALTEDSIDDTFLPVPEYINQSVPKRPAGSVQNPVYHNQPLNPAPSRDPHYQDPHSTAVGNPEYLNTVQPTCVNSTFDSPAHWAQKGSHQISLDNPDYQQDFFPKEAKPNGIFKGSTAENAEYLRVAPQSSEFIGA

[15] = molecular target: T5, Tyrosine-protein kinase ITK/TSK (Homo sapiens, UniProt Q08881); assay: Binding affinity to ITK (unknown origin) assessed as dissociation constant by KINOMEscan analysis
T5 sequence (Q08881 whole entry): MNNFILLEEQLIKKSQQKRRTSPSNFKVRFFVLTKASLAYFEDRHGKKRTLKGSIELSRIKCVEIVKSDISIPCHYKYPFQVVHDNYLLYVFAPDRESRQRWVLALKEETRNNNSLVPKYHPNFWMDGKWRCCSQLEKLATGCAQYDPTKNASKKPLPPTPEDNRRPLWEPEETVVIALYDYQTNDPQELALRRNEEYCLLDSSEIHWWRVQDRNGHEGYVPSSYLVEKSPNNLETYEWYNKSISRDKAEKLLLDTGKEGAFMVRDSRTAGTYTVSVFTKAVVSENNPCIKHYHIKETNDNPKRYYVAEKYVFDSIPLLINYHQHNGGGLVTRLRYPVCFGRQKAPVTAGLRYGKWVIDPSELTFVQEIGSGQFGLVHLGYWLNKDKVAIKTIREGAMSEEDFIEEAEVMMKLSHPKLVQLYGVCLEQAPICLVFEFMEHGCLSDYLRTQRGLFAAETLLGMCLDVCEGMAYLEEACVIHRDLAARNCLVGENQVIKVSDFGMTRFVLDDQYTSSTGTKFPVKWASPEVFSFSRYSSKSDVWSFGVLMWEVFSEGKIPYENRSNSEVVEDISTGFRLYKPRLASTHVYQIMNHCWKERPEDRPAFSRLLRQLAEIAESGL

[16] = Clearance in iv dosed Sprague-Dawley rat; type: ADME, organism-based; details: in vivo
[17] = Plasma protein binding in rat assessed as unbound fraction by rapid equilibrium dialysis method; type: ADME, cell-free

SMILES	CLint scaled [1]	fraction unbound [2]	CLint scaled [3]	IC50 [4]	IC50 [5]	IC50 [11]	also measured
C=CC(=O)N(C)CCOc1cncnc1-c1ccc(CN2CCN(CC(C)(C)C)CC2=O)c(C)c1	1370 mL/min/kg	0.14	2500 mL/min/kg	630 nM	1.35 nM	–	solubility [6]: 13 µg/mL (≈ 27.1 µM)
CC#CC(=O)N1CCC[C@H]1c1nc(-c2ccc(C(=O)Nc3ccccn3)cc2)c2c(N)nccn12 [ACALABRUTINIB]	–	–	–	–	–	–	Kd [7]: 18 nM; Kd [8]: 24 nM
C=CC(=O)N1CCC([C@@H]2CCNc3c(C(N)=O)c(-c4ccc(Oc5ccccc5)cc4)nn32)CC1 [ZANUBRUTINIB]	–	–	–	–	–	–	Kd [9]: 18 nM; Kd [10]: 76 nM; Kd [8]: 980 nM
Cc1cc(-c2ccnc(Nc3cnn(C4CN(C)C4)c3)n2)ccc1CN1CCN(CC(C)(C)C)CC1=O	–	–	–	–	7 nM	2650 nM	–
CC(=O)N(C)CCOc1cncnc1-c1ccc(CN2CCN(CC(C)(C)C)CC2=O)c(C)c1	530 mL/min/kg	0.31	1500 mL/min/kg	> 10000 nM	1720 nM	–	–
C[C@@H]1CN(C2COC2)CCN1c1ccc(Nc2cc(-c3ccnc(N4CCn5c(cc6c5CC(C)(C)C6)C4=O)c3CO)cn(C)c2=O)nc1	–	–	–	–	–	–	Kd [9]: 210 nM; Kd [7]: 4100 nM; Kd [12]: 23000 nM; Kd [13]: 30000 nM; Kd [14]: 30000 nM; Kd [15]: 190 nM; Kd [10]: 30000 nM; Kd [8]: 2000 nM
C=CC(=O)N(C)CCOc1c(N)ncnc1-c1cc(F)cc(NC(=O)c2ccc(C3CC3)cc2F)c1C [REMIBRUTINIB]	80 mL/min/kg	–	97 mL/min/kg	36 nM	–	–	Kd [7]: 30000 nM; clearance [16]: 214 mL/min/kg; Kd [8]: 17000 nM
Cc1cc(-c2ccnc(Nc3cnn(C)c3)n2)ccc1CN1CCN(CC2CCC2)CC1=O	–	–	–	–	3 nM	930 nM	–

More lines, main results first:

CLint scaled [1]	fraction unbound [2]	CLint scaled [3]	IC50 [4]	IC50 [5]	IC50 [11]	SMILES	also measured
809 mL/min/kg	0.11	3680 mL/min/kg	300 nM	0.44 nM	–	C=CC(=O)N(C)CCOc1cnccc1-c1ccc(CN2CCN(CC(C)(C)C)CC2=O)c(C)c1	solubility [6]: 55 µg/mL (≈ 115 µM)
–	–	–	–	1 nM	810 nM	Cc1cc(-c2ccnc(Nc3cnn(CCO)c3)n2)ccc1CN1CCN(CC(C)(C)C)CC1=O	–
–	–	–	–	0.4 nM	480 nM	CC(C)(C)CN1CCN(Cc2ccc(-c3ccnc(Nc4cnn(CCO)c4)n3)cc2C(F)(F)F)C(=O)C1	–
228 mL/min/kg	0.014	493 mL/min/kg	> 10000 nM	1 nM	1050 nM	Cc1cc(-c2ccnc(Nc3cnn(C)c3)n2)ccc1CN1CCN(CC(C)(C)C)CC1=O	solubility [6]: 11 µg/mL (≈ 24.6 µM)
334 mL/min/kg	0.29	793 mL/min/kg	360 nM	0.69 nM	–	C=CC(=O)N(C)CCOc1c(-c2ccc(CN3CCN(CC(C)C)CC3=O)c(C)c2)ccnc1N	–
444 mL/min/kg	0.24	2000 mL/min/kg	130 nM	0.83 nM	–	C=CC(=O)N(C)CCOc1cncnc1-c1ccc(CN2CCN(CC(C)C)CC2=O)c(C)c1	fraction unbound [17]: 0.07
